Consider one compound from patent US20030215899A1, “Reversible oxidation of protein tyrosine phosphatases” (CEPTYR, Inc., priority 2002, published 2003).

SMILES strings stand for the structures.

For this experiment, the system named is PTPs in Rat-1 cells. Put plainly: modified in-gel PTP activity assay of Rat-1 cell lysates. The format is cell-based. An excerpt: To determine whether ROS stimulated intracellular tyrosine phosphorylation through the oxidation and inhibition of cellular PTPs, a modified in-gel PTP activity assay was devised, as follows: As substrate, poly (4:1) Glu-Tyr (Sigma) was labeled with [γ-^32P]-ATP using the GST-FER fusion PTK, as described previously (Shen et al., 1998 J. Biol. Chem. 273:6474-81). The labeled substrates were used within three weeks to limit the variation of its specific activity from experiment to experiment. The lysis buffer (25 mM CH3COONa, 1% NP-40, 150 mM NaCl, 10% glycerol, pH 5.5) was degassed at 4° C. for overnight, before catalase and superoxide dismutase (both 100 μg/ml), protease inhibitors and 10 mM iodoacetic acid (IAA) were added. Following stimulation, cells were lysed under anaerobic conditions in an argon chamber. Lysates (25 μg) were processed as described herein and an “in-gel” phosphatase assay (Burridge and Nelson, 1995) was conducted using SDS-PAGE gels containing a radioactively-labeled substrate (1.5×10^6 cpm/20 ml gel solution, approximately 2 μM p-Tyr).
Cells were triggered with the appropriate stimulus and harvested under anaerobic conditions in lysis buffer containing IAA. Those PTPs that had not encountered ROS in the cell became irreversibly inactivated by alkylation of their active site Cys with IAA. However, in contrast, any PTPs in which the active site Cys had been oxidized in response to the stimulus were resistant to alkylation. For the “in-gel” phosphatase assay, a 10% SDS-PAGE gel was cast containing a radioactively-labeled substrate. An aliquot of cell lysate was subjected to SDS-PAGE and proteins in the gel were sequentially denatured, then renatured in the presence of reducing reagents. […] The reaction was then terminated by fixing, staining and destaining the gel. Finally the gel was dried and exposed to film. The presence of a PTP was visualized by substrate dephosphorylation, as the appearance of a clear, white area on the black background of labeled substrate.

On to `CCCCS(=N)(=O)CCC(N)C(=O)O` [BSO, L-buthionine-SR-sulfoximine], for which, under “2.5 mM BSO 16 h, 200 μM H2O2 for 2 minutes then removed”, the “effect on recovery of PTP activity following removal of H2O2” value is on record as “markedly attenuated the recovery of PTP activity”. In addition, the “persistence of PTP oxidation after removal of H2O2” value (BSO-pretreated Rat-1 cells) is no less than 30 min.
